In US9169195B2, “Amides, use of amides as solvents for organic compounds, compositions and emulsions containing amides, and method for treating a plant” (AKZO NOBEL CHEMICALS INTERNATIONAL B.V., priority 2009, dated 2015):
Read-outs that look alike come from different tables or passages of the source.

Experiments:
[1] = numbers taken from the e-Pesticide Manual v 4.0; cited from earlier work
[2] = Solubility of active ingredients in the amide solvents (solvent added until dissolved, stable 24 h)
Protocol: Various agriculturally active ingredients were dissolved in both N-methyl-N-(2-propylheptyl)-formamide and N-methyl-N-(n-decyl)-formamide in order to evaluate the solubility of the active ingredients in the amides.
This was done by adding the active ingredient (AI) to a beaker and thereafter adding the solvent until the entire AI had been dissolved. The solutions were continually stirred at a temperature of 23° C. during the experiments. When everything had been dissolved, the beakers were left without stirring for 24 h to see if the solution was stable (i.e. no crystallization).

[3] = Emulsion dilution: crystallisation of tebuconazole in emulsions, ocular inspection; format: physicochemical; design: key: +: no crystals visible; −: crystals visible; settings: 5° C.
Protocol: Formulations containing 250 g/l of tebuconazole was formulated together with 100 g/l of surfactant blend (CaDDBS and tristyrylphenol ethoxylate (15 EO), 50:50) and diluted to a final volume of one liter with each one of the solvents N,N-dimethyl decanamide, N-methyl-N-octyl propanamide, N-methyl-N-(2-propylheptyl) formamide or N-methyl-N-(n-decyl) formamide. Each formulation was emulsified into tap water at ambient temperature (˜22° C.) in the volume ratio (formulation:water) 1:100, 1:150, 1:200 and 1:500 dilution. The emulsions were poured into 100 ml conical glass centrifuge tubes and monitored over time at three different temperatures 5, 20 and 40° C. for observation of crystallisation of active ingredient (tebuconazole).
Crystallization was judged by ocular inspection with the naked eye, and in the table below, the following is used: […]

[4] = solvent N-methyl-N-(2-propylheptyl) formamide, 23° C.
[5] = solvent N-methyl-N-(n-decyl) formamide, 23° C.
[6] = 3 h, formulation:tap water 1:100, 250 g/l tebuconazole
[7] = 3 h, formulation:tap water 1:150, 250 g/l tebuconazole
[8] = 3 h, formulation:tap water 1:200, 250 g/l tebuconazole
[9] = 3 h, formulation:tap water 1:500, 250 g/l tebuconazole
[10] = 6 h, formulation:tap water 1:100, 250 g/l tebuconazole
[11] = 6 h, formulation:tap water 1:150, 250 g/l tebuconazole
[12] = 6 h, formulation:tap water 1:200, 250 g/l tebuconazole
[13] = 6 h, formulation:tap water 1:500, 250 g/l tebuconazole
[14] = 12 h, formulation:tap water 1:100, 250 g/l tebuconazole
[15] = 12 h, formulation:tap water 1:150, 250 g/l tebuconazole
[16] = 12 h, formulation:tap water 1:200, 250 g/l tebuconazole
[17] = 12 h, formulation:tap water 1:500, 250 g/l tebuconazole
[18] = 24 h, formulation:tap water 1:100, 250 g/l tebuconazole
[19] = 24 h, formulation:tap water 1:150, 250 g/l tebuconazole
[20] = 24 h, formulation:tap water 1:200, 250 g/l tebuconazole
[21] = 24 h, formulation:tap water 1:500, 250 g/l tebuconazole
[22] = 36 h, formulation:tap water 1:100, 250 g/l tebuconazole
[23] = 36 h, formulation:tap water 1:150, 250 g/l tebuconazole
[24] = 36 h, formulation:tap water 1:200, 250 g/l tebuconazole
[25] = 36 h, formulation:tap water 1:500, 250 g/l tebuconazole
[26] = 48 h, formulation:tap water 1:100, 250 g/l tebuconazole
[27] = 48 h, formulation:tap water 1:150, 250 g/l tebuconazole
[28] = 48 h, formulation:tap water 1:200, 250 g/l tebuconazole
[29] = 48 h, formulation:tap water 1:500, 250 g/l tebuconazole
[30] = 72 h, formulation:tap water 1:100, 250 g/l tebuconazole
[31] = 72 h, formulation:tap water 1:150, 250 g/l tebuconazole
[32] = 72 h, formulation:tap water 1:200, 250 g/l tebuconazole
[33] = 72 h, formulation:tap water 1:500, 250 g/l tebuconazole
[34] = 96 h, formulation:tap water 1:100, 250 g/l tebuconazole
[35] = 96 h, formulation:tap water 1:150, 250 g/l tebuconazole
[36] = 96 h, formulation:tap water 1:200, 250 g/l tebuconazole
[37] = 96 h, formulation:tap water 1:500, 250 g/l tebuconazole

For `Cc1c(COC(=O)[C@@H]2[C@H](/C=C(\Cl)C(F)(F)F)C2(C)C)cccc1-c1ccccc1` (racemic) [Bifenthrin], the “Solubility in Water” value [1] is given as less than 0.0000001 g Al/100 g solvent, the “Solubility in N-Methyl-N-(2-propylheptyl) formamide” value [2, 4] is given as greater than 50 g Al/100 g solvent and the “Solubility in N-Methyl-N-(n-decyl) formamide” value [2, 5] is given as greater than 50 g Al/100 g solvent.
For `O=C(O)COc1ccc(Cl)cc1Cl` [2,4-D acid], the “Solubility in Water” value [1] is given as 0.0311 g Al/100 g solvent, the “Solubility in N-Methyl-N-(2-propylheptyl) formamide” value [2, 4] is given as 41 g Al/100 g solvent and the “Solubility in N-Methyl-N-(n-decyl) formamide” value [2, 5] is given as greater than 50 g Al/100 g solvent.
In the case of `Cc1ccc(/N=C/N(C)/C=N/c2ccc(C)cc2C)c(C)c1` [Amitraz], the “Solubility in Water” value [1] is listed as less than 0.00001 g Al/100 g solvent, the “Solubility in N-Methyl-N-(2-propylheptyl) formamide” value [2, 4] is listed as greater than 50 g Al/100 g solvent and the “Solubility in N-Methyl-N-(n-decyl) formamide” value [2, 5] is listed as greater than 50 g Al/100 g solvent.
In the case of `CCCCCCCCCC(=O)N(C)C` [N,N-dimethyl decanamide], the “Crystallisation of tebuconazole in emulsion” value (“Crystallisation” for short) [3, 6] is reported as “+”, the “Crystallisation” value [3, 7] is reported as “+” and the “Crystallisation” value [3, 8] is reported as “+”. The “Crystallisation” value [3, 9] was “+”, the “Crystallisation” value [3, 10] was “+” and the “Crystallisation” value [3, 11] was “+”. The “Crystallisation” value [3, 12] was “+”, the “Crystallisation” value [3, 13] was “−” and the “Crystallisation” value [3, 14] was “+”. The “Crystallisation” value [3, 15] was “+”, the “Crystallisation” value [3, 16] was “−” and the “Crystallisation” value [3, 17] was “−”. For the same compound, the “Crystallisation” value [3, 18] was “+”, the “Crystallisation” value [3, 19] was “−” and the “Crystallisation” value [3, 20] was “−”. For the same compound, the “Crystallisation” value [3, 21] was “−”, the “Crystallisation” value [3, 22] was “+” and the “Crystallisation” value [3, 23] was “−”. For the same compound, the “Crystallisation” value [3, 24] was “−”, the “Crystallisation” value [3, 25] was “−” and the “Crystallisation” value [3, 26] was “+”. For the same compound, the “Crystallisation” value [3, 27] was “−”, the “Crystallisation” value [3, 28] was “−” and the “Crystallisation” value [3, 29] was “−”. The “Crystallisation” value [3, 30] was “+”, the “Crystallisation” value [3, 31] was “−” and the “Crystallisation” value [3, 32] was “−”. The “Crystallisation” value [3, 33] was “−”, the “Crystallisation” value [3, 34] was “+” and the “Crystallisation” value [3, 35] was “−”. The “Crystallisation” value [3, 36] was “−” and the “Crystallisation” value [3, 37] was “−”.
In the case of `CCCCCC(CCC)CN(C)C=O` (stereo not drawn) [N-methyl-N-(2-propylheptyl) formamide, N-methyl-N-(2-propylheptyl)-formamide], the “Crystallisation” value [3, 6] is reported as “+”, the “Crystallisation” value [3, 7] is reported as “+” and the “Crystallisation” value [3, 8] is reported as “+”. For the same compound, the “Crystallisation” value [3, 9] was “+”, the “Crystallisation” value [3, 10] was “+” and the “Crystallisation” value [3, 11] was “+”. For the same compound, the “Crystallisation” value [3, 12] was “+”, the “Crystallisation” value [3, 13] was “+” and the “Crystallisation” value [3, 14] was “+”. For the same compound, the “Crystallisation” value [3, 15] was “+”, the “Crystallisation” value [3, 16] was “+” and the “Crystallisation” value [3, 17] was “+”. The “Crystallisation” value [3, 18] was “+”, the “Crystallisation” value [3, 19] was “+” and the “Crystallisation” value [3, 20] was “+”. The “Crystallisation” value [3, 21] was “+”, the “Crystallisation” value [3, 22] was “+” and the “Crystallisation” value [3, 23] was “+”. For the same compound, the “Crystallisation” value [3, 24] was “+”, the “Crystallisation” value [3, 25] was “+” and the “Crystallisation” value [3, 26] was “+”. For the same compound, the “Crystallisation” value [3, 27] was “+”, the “Crystallisation” value [3, 28] was “+” and the “Crystallisation” value [3, 29] was “+”. The “Crystallisation” value [3, 30] was “+”, the “Crystallisation” value [3, 31] was “+” and the “Crystallisation” value [3, 32] was “+”. The “Crystallisation” value [3, 33] was “+”, the “Crystallisation” value [3, 34] was “+” and the “Crystallisation” value [3, 35] was “+”. The “Crystallisation” value [3, 36] was “+” and the “Crystallisation” value [3, 37] was “+”.
In the case of `CCCCCCCCCCN(C)C=O` [N-methyl-N-(n-decyl) formamide], the “Crystallisation” value [3, 6] is reported as “+”, the “Crystallisation” value [3, 7] is reported as “+” and the “Crystallisation” value [3, 8] is reported as “+”. The “Crystallisation” value [3, 9] was “+”, the “Crystallisation” value [3, 10] was “+” and the “Crystallisation” value [3, 11] was “+”. For the same compound, the “Crystallisation” value [3, 12] was “+”, the “Crystallisation” value [3, 13] was “+” and the “Crystallisation” value [3, 14] was “+”. The “Crystallisation” value [3, 15] was “+”, the “Crystallisation” value [3, 16] was “+” and the “Crystallisation” value [3, 17] was “+”. The “Crystallisation” value [3, 18] was “+”, the “Crystallisation” value [3, 19] was “+” and the “Crystallisation” value [3, 20] was “+”. For the same compound, the “Crystallisation” value [3, 21] was “+”, the “Crystallisation” value [3, 22] was “+” and the “Crystallisation” value [3, 23] was “+”. For the same compound, the “Crystallisation” value [3, 24] was “+”, the “Crystallisation” value [3, 25] was “+” and the “Crystallisation” value [3, 26] was “+”. For the same compound, the “Crystallisation” value [3, 27] was “+”, the “Crystallisation” value [3, 28] was “+” and the “Crystallisation” value [3, 29] was “+”. For the same compound, the “Crystallisation” value [3, 30] was “+”, the “Crystallisation” value [3, 31] was “+” and the “Crystallisation” value [3, 32] was “+”. For the same compound, the “Crystallisation” value [3, 33] was “+”, the “Crystallisation” value [3, 34] was “+” and the “Crystallisation” value [3, 35] was “+”. The “Crystallisation” value [3, 36] was “+” and the “Crystallisation” value [3, 37] was “+”.
For `CCCCCCCCN(C)C(=O)CC` [N-methyl-N-octyl propanamide], the “Crystallisation” value [3, 6] was “+”, the “Crystallisation” value [3, 7] was “+” and the “Crystallisation” value [3, 8] was “+”. For the same compound, the “Crystallisation” value [3, 9] was “+”, the “Crystallisation” value [3, 10] was “+” and the “Crystallisation” value [3, 11] was “+”. The “Crystallisation” value [3, 12] was “+”, the “Crystallisation” value [3, 13] was “−” and the “Crystallisation” value [3, 14] was “+”. For the same compound, the “Crystallisation” value [3, 15] was “+”, the “Crystallisation” value [3, 16] was “−” and the “Crystallisation” value [3, 17] was “−”. The “Crystallisation” value [3, 18] was “+”, the “Crystallisation” value [3, 19] was “+” and the “Crystallisation” value [3, 20] was “−”. The “Crystallisation” value [3, 21] was “−”, the “Crystallisation” value [3, 22] was “+” and the “Crystallisation” value [3, 23] was “+”. For the same compound, the “Crystallisation” value [3, 24] was “−”, the “Crystallisation” value [3, 25] was “−” and the “Crystallisation” value [3, 26] was “+”. The “Crystallisation” value [3, 27] was “−”, the “Crystallisation” value [3, 28] was “−” and the “Crystallisation” value [3, 29] was “−”. The “Crystallisation” value [3, 30] was “+”, the “Crystallisation” value [3, 31] was “−” and the “Crystallisation” value [3, 32] was “−”. The “Crystallisation” value [3, 33] was “−”, the “Crystallisation” value [3, 34] was “+” and the “Crystallisation” value [3, 35] was “−”. The “Crystallisation” value [3, 36] was “−” and the “Crystallisation” value [3, 37] was “−”.
In the case of `CC(C)(C)C(O)(CCc1ccc(Cl)cc1)Cn1cncn1` (stereo not drawn) [Tebuconazole], the “Solubility in N-Methyl-N-(n-decyl) formamide” value [2] is reported as 48 g Al/100 g solvent and the “Solubility in N-Methyl-N-(2-propylheptyl) formamide” value [2, 4] is reported as 48 g Al/100 g solvent.
In the case of `CON=C(C(=O)OC)c1ccccc1CON=C(C)c1cccc(C(F)(F)F)c1` [Trifloxystrobin], the “Solubility in N-Methyl-N-(2-propylheptyl) formamide” value [2] is reported as 23 g Al/100 g solvent and the “Solubility in N-Methyl-N-(n-decyl) formamide” value [2] is reported as 23 g Al/100 g solvent.
